Laboratory results reported in PMC6269915, “Design, Synthesis and Evaluation of 3-(2-Aminoheterocycle)-4-benzyloxyphenylbenzamide Derivatives as BACE-1 Inhibitors” (Molecules, 2013).
“Also recorded” adds a separate entry of the source. Where a name gives a salt, the structure may show the parent alone. Read-outs that look alike come from different tables or passages of the source.

Experiments:
BACE-1 [1] = target: T1, BACE-1 (Homo sapiens, UniProt P56817); assay: BACE-1 inhibition, fluorescence resonance energy transfer (FRET) assay; format: biochemical; conditions: BACE-1 FRET assay; for inhibition at 20 µg/mL: 20 μg/mL
T1 construct: host or cells: insect cells
Protocol: The obtained target compounds were tested for their BACE-1 inhibitory activities using a fluorescence resonance energy transfer (FRET) assay, with OM99-2, a potent peptidomimetic inhibitor, as the positive control.
All synthesized compounds were tested for their BACE 1 inhibitor activities using a fluorescence resonance energy transfer (FRET) assay, which used purified insect-expressed BACE-1 and a specific substrate. An excitation wavelength of 355 nm and an emission wavelength of 460 nm were used to monitor the hydrolysis of substrate.

[2] = Bidirectional transport across MDCK monolayer cells; format: in vitro ADME, canine; conditions: dog
Protocol: (§1) Blood-brain barrier (BBB) permeation is critical for any AD therapeutic drug.
(§2) Madin-Darby canine kidney cell line (MDCK) was obtained from Peking Union Medical College (Beijing, China). The MDR1-transfected MDCK-MDR1 cells were established in Prof. Su Zeng’s laboratory as follows: MDCK cells were seeded onto six-well plates with a seeding density of 1 × 10^5 cells/well and cultured for 48 h. pcDNA3.1(+)/MDR1 plasmid vector was transfected into MDCK cells using Lipofectamine ^TM 2000 reagent according to the manufacturer’s instructions. Cells were subcultured in DMEM containing 600 µg/mL G418 for 96 h, and then replaced by DMEM containing 800 μg/mL G418 for a further 24 h. Cells were transferred to culture bottle and incubated in DMEM supplemented with 600 μg/mL G418 for 20 days. 19 stable transfected monoclonals grown on 96-well plates were obtained after dilution screening. Cells were cultured in DMEM with 10% fetal bovine serum, and grown in a humidified atmosphere of 5% CO2 at 37 °C. A solution of 0.25% trypsin-EDTA was used to detach the cells from flasks.
MDCK and MDCK-MDR1 cells were washed twice and equilibrated at 37 °C for 30 min with pre-warmed transport buffer. Hanks’ balanced salted solution (HBSS) containing HEPES (25 mM, pH 7.4). The transport buffer containing drug passed through a 0.2 μm membrane filter for degerming. For the absorption study (Apical to Basolateral), 0.5 mL incubation medium containing drug was added to the apical side as a donor chamber, 1.5 mL fresh incubation medium was added to the basolateral side as a receiver chamber. For the secretion study (Basolateral to Apical), 1.5 mL incubation medium containing drug was added to the basolateral side as a donor chamber, 0.5 mL fresh incubation medium was added to the apical side as a receiver chamber. Transport studies were conducted at 37 °C in a humidiﬁed incubator with shaking (50 rpm) for 1 h, and then the collected samples were analyzed by HPLC. […]

MDCK-MDR1 cells = assay: Bidirectional transport across MDCK-MDR1 monolayer cells; format: in vitro ADME, canine
Protocol: as §1, §2
(§3) MDCK and MDCK-MDR1 cells were washed twice and equilibrated at 37 °C for 30 min with pre-warmed transport buffer. Hanks’ balanced salted solution (HBSS) containing HEPES (25 mM, pH 7.4). The transport buffer containing drug passed through a 0.2 μm membrane filter for degerming. For the absorption study (Apical to Basolateral), 0.5 mL incubation medium containing drug was added to the apical side as a donor chamber, 1.5 mL fresh incubation medium was added to the basolateral side as a receiver chamber. For the secretion study (Basolateral to Apical), 1.5 mL incubation medium containing drug was added to the basolateral side as a donor chamber, 0.5 mL fresh incubation medium was added to the apical side as a receiver chamber. Transport studies were conducted at 37 °C in a humidiﬁed incubator with shaking (50 rpm) for 1 h, and then the collected samples were analyzed by HPLC. Apparent permeability coefficients (Papp(A-B), Papp(B-A)) and efflux ratio (Pratio = (Papp(B-A)/Papp(A-B)) were used to evaluate the permeability and absorption profiles of compounds. P ratio is an important parameter to denote if a compound is a substrate of P-gp or not.

P-gp (MDR1) = assay: as above; format: in vitro ADME, canine; conditions: dog
Protocol: as §1, §2, §3

BACE-1 [3] = target: T1, BACE-1; conditions: cited from earlier work
[4] = set-up: method as in PMID 17156133; conditions: in words; cited from earlier work
[5] = set-up: method as in PMID 19409780; conditions: mice, 20 mg/kg iv, t = 30 min; cited from earlier work
[6] = pH 7.4, 55.6 μM 5e, 1 h, mean ± SD, n = 3
[7] = pH 7.4, MDCK-MDR1, 55.6 μM 5e, 1 h, mean ± SD, n = 3

T1 sequence (P56817 46-501): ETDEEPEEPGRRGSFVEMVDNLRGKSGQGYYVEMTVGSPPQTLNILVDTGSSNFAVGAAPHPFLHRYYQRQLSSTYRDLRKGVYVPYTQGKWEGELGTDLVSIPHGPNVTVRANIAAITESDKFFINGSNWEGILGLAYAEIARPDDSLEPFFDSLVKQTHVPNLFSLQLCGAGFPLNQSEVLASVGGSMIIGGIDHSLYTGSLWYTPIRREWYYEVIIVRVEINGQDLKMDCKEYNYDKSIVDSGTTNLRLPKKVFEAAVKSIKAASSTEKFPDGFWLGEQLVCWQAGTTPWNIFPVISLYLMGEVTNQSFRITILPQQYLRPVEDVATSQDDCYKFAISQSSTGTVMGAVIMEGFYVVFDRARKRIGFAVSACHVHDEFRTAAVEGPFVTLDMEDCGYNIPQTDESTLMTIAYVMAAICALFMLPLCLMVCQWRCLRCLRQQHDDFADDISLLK

melting point [°C]	inhibition at 20 µg/mL (BACE-1 [1]) [%]	Compound	also measured
222 to 225	–	NC1=NN=C(c2cc(NC(=O)c3ccc(C(F)(F)F)cc3)ccc2OCc2ccccc2)CS1 (as salt: hydrobromid) [5c, N-(3-(2-Amino-6H-1,3,4-thiadiazin-5-yl)-4-(benzyloxy)phenyl)-4-(trifluoromethyl)-benzamide hydro-bromide]	–
–	38.8 ± 0.3	Nc1nc(-c2cc(NC(=O)c3ccccc3)ccc2OCc2ccccc2)co1 [4a, N-(3-(2-Aminooxazol-4-yl)-4-(benzyloxy)phenyl)benzamide]	–
–	49.9 ± 0.2	Nc1nc(-c2cc(NC(=O)c3ccc(Cl)cc3)ccc2OCc2ccccc2)co1 [4b, N-(3-(2-Aminooxazol-4-yl)-4-(benzyloxy)phenyl)-4-chlorobenzamide]	–
225 to 227	47.5 ± 9.9	Nc1nc(-c2cc(NC(=O)c3ccc(C(F)(F)F)cc3)ccc2OCc2ccccc2)co1 [4c, N-(3-(2-Aminooxazol-4-yl)-4-(benzyloxy)phenyl)-4-(trifluoromethyl)benzamide]	–
–	34.4 ± 5.7	COc1ccc(C(=O)Nc2ccc(OCc3ccccc3)c(-c3coc(N)n3)c2)cc1 [4d, N-(3-(2-Aminooxazol-4-yl)-4-(benzyloxy)phenyl)-4-methoxybenzamide]	–
195 to 197	42.6 ± 3.2	Nc1nc(-c2cc(NC(=O)c3cccc4ccccc34)ccc2OCc2ccccc2)co1 [4e, N-(3-(2-Aminooxazol-4-yl)-4-(benzyloxy)phenyl)-1-naphthamide]	–
246 to 247	64.2 ± 0.5	Br.NC1=NN=C(c2cc(NC(=O)c3ccccc3)ccc2OCc2ccccc2)CS1 [5a, N-(3-(2-Amino-6H-1,3,4-thiadiazin-5-yl)-4-(benzyloxy)phenyl)benzamide hydrobromide]	IC50 (BACE-1 [1]): 16.7 µM
217 to 218	76 ± 2.5	Br.NC1=NN=C(c2cc(NC(=O)c3ccc(Cl)cc3)ccc2OCc2ccccc2)CS1 [5b, N-(3-(2-Amino-6H-1,3,4-thiadiazin-5-yl)-4-(benzyloxy)phenyl)-4-chlorobenzamide hydrobromide]	IC50 (BACE-1 [1]): > 20 µM
–	46.9 ± 7.5	NC1=NN=C(c2cc(NC(=O)c3ccc(C(F)(F)F)cc3)ccc2OCc2ccccc2)CS1 [5c, N-(3-(2-Amino-6H-1,3,4-thiadiazin-5-yl)-4-(benzyloxy)phenyl)-4-(trifluoromethyl)-benzamide hydro-bromide]	–
181 to 182	84.9 ± 16.7	Br.COc1ccc(C(=O)Nc2ccc(OCc3ccccc3)c(C3=NN=C(N)SC3)c2)cc1 [5d, N-(3-(2-Amino-6H-1,3,4-thiadiazin-5-yl)-4-(benzyloxy)phenyl)-4-methoxybenzamide hydrobromide]	IC50 (BACE-1 [1]): > 20 µM
219 to 221	60 ± 3.1	Br.NC1=NN=C(c2cc(NC(=O)c3cccc4ccccc34)ccc2OCc2ccccc2)CS1 [5e, N-(3-(2-Amino-6H-1,3,4-thiadiazin-5-yl)-4-(benzyloxy)phenyl)-1-naphthamide hydrobromide]	IC50 (BACE-1 [1]): 9.9 µM; Papp A→B at 1 h, 55.6 μM [2, 6]: 28.2 ± 6.45 ×10⁻⁶ cm/s; Papp B→A at 1 h, 55.6 μM [2, 6]: 27.7 ± 2.87 ×10⁻⁶ cm/s; efflux ratio at 1 h, 55.6 μM ([2]; pH 7.4, Papp(B-A)/Papp(A-B)): 0.98; Blood-brain barrier permeability assessment (MDCK-MDR1 cells; MDCK and MDCK-MDR1 model, in words): high brain uptake potential; also recorded: good penetration ability through the blood-brain barrier; also recorded: favorable blood-brain barrier permeability; P-gp substrate assessment (MDCK-MDR1 cells; net efflux ratio less than FDA's recommendation of 2): not a P-gp substrate; efflux ratio at 1 h, 55.6 μM (P-gp (MDR1); MDCK-MDR1, pH 7.4, MDCK-MDR1, Papp(B-A)/Papp(A-B), read-out: Efflux ratio): 0.7; efflux ratio at 1 h, 55.6 μM (P-gp (MDR1); MDCK-MDR1, pH 7.4, MDCK-MDR1 versus MDCK, read-out: Net efflux ratio): 0.71; Papp A→B at 1 h, 55.6 μM (P-gp (MDR1); [7]): 31.8 ± 1.85 ×10⁻⁶ cm/s; Papp B→A at 1 h, 55.6 μM (P-gp (MDR1); [7]): 22.2 ± 1.24 ×10⁻⁶ cm/s

More lines, now with the values behind:

Compound	melting point [°C]	inhibition at 20 µg/mL (BACE-1 [1]) [%]	also measured
Nc1nc(-c2cc(NC(=O)c3ccccc3)ccc2OCc2ccccc2)cs1 [3a, N-(3-(2-Aminothiazol-4-yl)-4-(benzyloxy)phenyl)benzamide]	–	29.3 ± 1.3	–
Nc1nc(-c2cc(NC(=O)c3ccc(Cl)cc3)ccc2OCc2ccccc2)cs1 [3b, N-(3-(2-Aminothiazol-4-yl)-4-(benzyloxy)phenyl)-4-chlorobenzamide]	–	20.4 ± 4.4	–
Nc1nc(-c2cc(NC(=O)c3ccc(C(F)(F)F)cc3)ccc2OCc2ccccc2)cs1 [3c, N-(3-(2-Aminothiazol-4-yl)-4-(benzyloxy)phenyl)-4-(trifluoromethyl)benzamide]	–	33 ± 1.9	–
COc1ccc(C(=O)Nc2ccc(OCc3ccccc3)c(-c3csc(N)n3)c2)cc1 [3d, N-(3-(2-Aminothiazol-4-yl)-4-(benzyloxy)phenyl)-4-methoxybenzamide]	–	29.5 ± 3.5	–
Nc1nc(-c2cc(NC(=O)c3cccc4ccccc34)ccc2OCc2ccccc2)cs1 [3e, N-(3-(2-Aminothiazol-4-yl)-4-(benzyloxy)phenyl)-1-naphthamide]	198 to 200	55.3 ± 5.7	IC50 (BACE-1 [1]): > 20 µM
Nc1nc(-c2cc(NC(=O)c3cccnc3)ccc2OCc2ccccc2)cs1 [3f, N-(3-(2-Aminothiazol-4-yl)-4-(benzyloxy)phenyl)nicotinamide]	212 to 213	36.8 ± 6.9	–
Nc1nc(-c2cc(NC(=O)Cc3ccccc3)ccc2OCc2ccccc2)cs1 [3g, N-(3-(2-Aminothiazol-4-yl)-4-(benzyloxy)phenyl)-2-phenylacetamide]	190 to 193	8.9 ± 7	–
Nc1nc(-c2cc(NC(=O)CCc3ccccc3)ccc2OCc2ccccc2)cs1 [3h, N-(3-(2-Aminothiazol-4-yl)-4-(benzyloxy)phenyl)-3-phenylpropanamide]	192 to 193	3.1 ± 2.5	–
Nc1nc(-c2cc(NC(=O)Cc3cccc4ccccc34)ccc2OCc2ccccc2)cs1 [3i, N-(3-(2-Aminothiazol-4-yl)-4-(benzyloxy)phenyl)-2-(naphthalen-1-yl)acetamide]	246 to 247	11.3 ± 0.7	–
CCNc1cc(C(=O)N[C@@H](Cc2ccccc2)[C@H](O)CNCc2cccc(C(F)(F)F)c2)c(F)c(N2CCCCS2(=O)=O)c1 [GSK188909]	–	–	IC50 (BACE-1 [3]): 0.005 µM; blood-brain barrier permeability [4]: poor blood-brain barrier permeability
NC1=NC(c2ccccc2)(c2ccccc2)C2=NCCCN12 [compound 2]	–	–	[brain] [5]: 15 µM
